Assay results: US20240208898A1, “ENAMINE N-OXIDES: SYNTHESIS AND APPLICATION TO HYPOXIA-RESPONSIVE PRODRUGS AND IMAGING AGENTS” (DANA-FARBER CANCER INSTITUTE, INC., priority 2021, published 2024)

Columns and labels:
[1] = tested on: BxPC-3 pancreatic cancer cell line; experiment: In-gel fluorescence imaging of cells labeled by enamine N-oxides; type: cell-based
Experimental: Cells were seeded at a density of 200,000 cells per well in media [2 mL, RPMI (A431, H460, HeLa, Bx-PC3, MDA-MB-231) or DMEM (U251) supplemented with 5% heat-inactivated human serum (Sigma), penicillin (100 units/mL), and streptomycin (0.1 mg/mL)] in 6-well plates. Cells were incubated at 37° C. under ambient atmosphere with 5% CO2. After 24 h, the media was aspirated and replaced with fresh media [1 mL, RPMI (A431, H460, HeLa, Bx-PC3, MDA-MB-231) or DMEM (U251) supplemented with 5% heat-inactivated human serum, penicillin (100 units/mL), and streptomycin (0.1 mg/mL)] containing enamine N-oxide probe (200 mM in ethanol; 10 μM final concentration). Plates were then incubated at 37° C. under ambient (20% pO2) or various oxygenated conditions (5%, 1%, or 0.1% pO2) with 5% CO2. Oxygenated conditions were maintained using a hypoxia chamber (ProOx C21, Biospherix) in a cell culture incubator. […] PBS (1 mL) was then added to each well and cells were scraped off with a cell scraper. The cell suspensions were placed into microcentrifuge tubes and pelleted by spinning at 10,000×g for 5 minutes at 4° C. The supernatant was then removed, and the pellet was dissolved with an SDS solution (100 μL, 1% SDS in 50 mM Tris buffer, pH 8.0). The protein concentration was determined by BCA assay following the manufacturer's protocol (Pierce). The sample was then labeled using the copper-catalyzed azide-alkyne cycloaddition (CuAAC). […] The dried pellet was then resuspended in an SDS solution (50 μL, 1% SDS in 50 mM Tris, pH 8.0), and the protein concentration was determined by BCA assay. […] In-gel fluorescence was visualized by a laser scanner (Typhoon™ FLA 9500, GE) and quantified using ImageJ software. […] Detection was mediated by an anti-rabbit IR680-dye conjugated secondary antibody (LI-COR Biosciences, 925-68071) and imaged using a fluorescence scanner (Odyssey CLx, LI-COR Biosciences).

[2] = tested on: BxPC-3 xenograft mouse model; experiment: Near infrared imaging in live mice; type: in vivo; details: intraperitoneal 20 mg/kg
Experimental: All animal experiments were performed according to procedures and protocols approved by the Dana-Farber Cancer Institute Institutional Animal Care and Use Committee. Bx-PC3 cells were grown to confluency in antibiotic-free RPMI supplemented with 10% FBS, trypsinized, and washed three times with ice cold PBS (50 mL). Cells were resuspended in PBS at a concentration of 1.0×10^7 cells per 100 μL. 8-week old, female, homozygous NU/J mice (Jackson Laboratory) were subcutaneously injected with 1.0×10^7 Bx-PC3 cells over the right hind flank under isoflurane anesthesia. Experiments were performed when tumors reached 1000 mm^3 in size. Mice were intraperitoneally injected with a solution of Si700-enamine N-oxide probe 42 (20 mg/kg, 7.93 mM in 0.9% saline). Under isoflurane anesthesia, mice were then imaged with a Xenogen IVIS 100 fluorescence imager using an excitation of 675 nm and emission of 720 nm at various time points (0 hours (before treatment), 6 hours, 24 hours and 30 hours (after treatment)). Mice were then intraperitoneally injected with a solution of Si700-enamine N-oxide probe 42 (20 mg/kg, 7.93 mM in 0.9% saline) 30 hours post injection. After 16 hours, mice were intraperitoneally injected with a bolus of pimonidazole solution (200 μL, 25.8 mM pimonidazole in 0.9% saline). […]

Row | SMILES | labeling in cell culture (oxygen dependence) ([1]; BxPC-3, 48 h) | oxygen tension of probe activation ([1]; BxPC-3, over 48 h, CuAAC with TAMRA-azide) | labeling of cells under normoxia and hypoxia ([1]; Bx-PC3 cells, 10 μM, 12 h, in-gel fluorescence after CuAAC with TAMRA-azide) | near-infrared fluorescence imaging: accumulation in the tumor [2]
1 | C#CCCCCC(F)/C=C/[N+]([O-])(CC)CC (stereo not shown) [probe 39, (E)-N,N-diethyl-3-fluoronon-1-en-8-yn-1-amine oxide] | oxygen-dependent labeling | ca. 1 % pO2 | – | –
2 | C#CCN(CCCCCC(F)/C=C/[N+]([O-])(CC)CC)C(=O)c1ccc(C2=c3cc4c(cc3[Si](C)(C)c3cc5c(cc32)CCN5C)=[N+](C)CC4)c(C)c1 (stereo not shown) [probe 42, Si700-enamine N-oxide] | – | – | labeled Bx-PC3 cells in a hypoxia-dependent manner | preferential accumulation of enamine N-oxide probe 42 in the tumor
